Data as given in US5431924A, “Anti-inflammatory composition derived from emu oil” (priority 1990, dated 1995).

Test system: male polyarthritic hooded rats
Test: Polyarthritis in male hooded rats: emu oil before and after uv exposure or benzoyl peroxide oxidation, with and without additives (Table 8)
Details: for anti-inflammatory activity in the rat polyarthritic model: emu oil after exposure to strong ultraviolet light, with or without additive, in words
[1] = Table 8, dose/kg 2 ml (EO), 20 mg (R.A., B-Carotene), 25 mg (Trolox-DE)

SMILES | anti-inflammatory activity in the rat polyarthritic model | Mean changes, Thickness Rear Paws, Days 12-16 [1] [mm] | Mean changes, Thickness Rear Paws, Days 16-20 [1] [mm] | Mean changes, Thickness Tail, Days 12-16 [1] [mm] | Mean changes, Thickness Tail, Days 16-20 [1] [mm] | Mean changes, Wt Chge, Days 12-16 [1] [g] | Mean changes, Wt Chge, Days 16-20 [1]
CC1=C(/C=C/C(C)=C/C=C/C(C)=C/C=C/C=C(C)/C=C/C=C(C)/C=C/C2=C(C)CCCC2(C)C)C(C)(C)CCC1 [β-carotene] | anti-inflammatory activity could be restored to the oil by the addition of retinyl acetate but not β-carotene |  |  |  |  |  | 
CC(=O)OC/C=C(C)/C=C/C=C(C)/C=C/C1=C(C)CCCC1(C)C [R.A. in E-Pg, Retinyl acetate] | anti-inflammatory activity could be restored to the oil | 0.16 | 0.30 | -0.12 | -0.10 | -02 | +10 g
